From US20230382888A1, “HDAC INHIBITOR SOLID STATE FORMS” (Viracta Subsidiary, Inc., priority 2020, published 2023)
Converted amounts (≈) assume the structure as drawn. “Also recorded” adds a separate entry of the source. Counter-ions that a name gives are not always drawn. Each block holds one compound with its values, some of them ahead of it.

What was measured:
[1] = Static storage stability at elevated temperature/humidity (XRPD, HPLC); assay type: physicochemical; details: for Solid form by XRPD after static storage: 7 days (1 week); for Appearance after static storage / HPLC purity after static storage: 1 week
[2] = Intrinsic dissolution rate (IDR) in FaSSGF; assay type: physicochemical; details: Fasted State Simulated Gastric Fluid
[3] = Thermodynamic aqueous solubility; assay type: physicochemical; details: for pH of saturated solution: water, after 24 hours equilibration at 25° C.
Experimental: Aqueous solubility was determined by suspending sufficient compound in 0.5 ml deionized water to give a maximum final concentration of 40 mg/ml of the parent free-form of the compound. The suspension was equilibrated at 25° C., on a Heidolph plate shaker set to 750 rpm for 24 hours. After equilibration, the appearance was noted and the pH of the saturated solution was measured. Samples forming suspensions were centrifuged for 4 min at 13,500 rpm. Samples were then filtered through a glass fiber C filter (particle retention 1.2 μm), before dilution with H2 O as appropriate. Quantitation was by HPLC (see Table 2 for parameters) with reference to a standard solution of approximately 0.15 mg/ml in DMSO. Different volumes of the standard, diluted and undiluted sample solutions were injected. The solubility was calculated using the peak areas determined by integration of the peak found at the same retention time as the principal peak in the standard injection. Analysis was performed on an Agilent HP1100/Infinity II 1260 series system equipped with a diode array detector and using OpenLAB software.

[4] = Gravimetric vapour sorption (GVS); assay type: physicochemical; details: for Hygroscopicity by GVS: 25° C.; for XRPD post-GVS (solid form): residue after GVS; for Water uptake, first sorption cycle: 40-90% RH; for Starting water content in GVS: at 40% RH
Experimental: Sorption isotherms were obtained using a SMS DVS Intrinsic moisture sorption analyser, controlled by DVS Intrinsic Control software. The sample temperature was maintained at 25° C. by the instrument controls. The humidity was controlled by mixing streams of dry and wet nitrogen, with a total flow rate of 200 ml/min. The relative humidity was measured by a calibrated Rotronic probe (dynamic range of 1.0 — 100% RH), located near the sample. The weight change, (mass relaxation) of the sample as a function of % RH was constantly monitored by a microbalance (accuracy ±0.005 mg). Typically, 20-30 mg of sample was placed in a tared mesh stainless steel basket under ambient conditions. The sample was loaded and unloaded at 40% RH and 25° C. (typical room conditions). A moisture sorption isotherm was performed as outlined below (2 scans per complete cycle). The standard isotherm was performed at 25° C. at 10% RH intervals over a 0-90% RH range. Typically, a double cycle (4 scans) was carried out. Data analysis was carried out within Microsoft Excel using the DVS Analysis Suite. [table]

[5] = assay type: physicochemical
Excerpt: There was insufficient residue to characterize these further.

Solid form by XRPD after static storage ([1]; 25° C./97% RH): converted to Mesylate Form 1
Solid form by XRPD after static storage ([1]; 40° C./75% RH): converted to Mesylate Form 1
Structure (SMILES): O=C(NO)c1cnc(N2CC3C(C2)C3NCc2ccc3cc(F)ccc3n2)nc1 (stereo not shown) [Mesylate Form 7, N-hydroxy 2-{6-[(6-fluoro-quinolin-2-ylmethyl)-amino]-3-aza-bicyclo[3.1.0]hex-3-yl}pyrimidine-5-carboxamide]

Solid form by XRPD after static storage ([1]; 25° C./97% RH): Poorly crystalline-Mesylate Form 1
Solid form by XRPD after static storage ([1]; 40° C./75% RH): Mesylate Form 1
Structure (SMILES): O=C(NO)c1cnc(N2CC3C(C2)C3NCc2ccc3cc(F)ccc3n2)nc1 (stereo not shown) [Mesylate Form 9, N-hydroxy 2-{6-[(6-fluoro-quinolin-2-ylmethyl)-amino]-3-aza-bicyclo[3.1.0]hex-3-yl}pyrimidine-5-carboxamide]
Appearance after static storage ([1]; 25° C./97% RH): Sample appeared wet-white solid still present
Appearance after static storage ([1]; 40° C./75% RH): color change to yellow; also recorded: Sample appeared ‘damp’-yellow solid present

Hygroscopicity by GVS [4]: hygroscopic
Solubility residue (solid form) [5]: new solubility residue patterns
HPLC purity after static storage ([1]; 25° C./97% RH): 99.5%
HPLC purity after static storage ([1]; 40° C./75% RH): 99.5%
Structure (SMILES): O=C(NO)c1cnc(N2C[C@@H]3[C@H](C2)[C@H]3NCc2ccc3cc(F)ccc3n2)nc1 [Mesylate Form 5, N-hydroxy 2-{6-[(6-fluoro-quinolin-2-ylmethyl)-amino]-3-aza-bicyclo[3.1.0]hex-3-yl}pyrimidine-5-carboxamide]
XRPD post-GVS (solid form) [4]: remaining unchanged; also recorded: stable after GVS analysis; also recorded: XRPD Post-GVS: Mesylate Form 5
Solid form by XRPD after static storage ([1]; 25° C./97% RH): remained as Mesylate Form 5; also recorded: Unchanged: Mesylate Form 5
Solid form by XRPD after static storage ([1]; 40° C./75% RH): remained as Mesylate Form 5; also recorded: Unchanged: Mesylate Form 5

Solid form by XRPD after static storage ([1]; 25° C./97% RH, listed as amorphous): largely amorphous
Solid form by XRPD after static storage ([1]; 40° C./75% RH, listed as amorphous): largely amorphous
Structure (SMILES): O=C(NO)c1cnc(N2CC3C(C2)C3NCc2ccc3cc(F)ccc3n2)nc1 (stereo not shown) [amorphous mesylate salt, N-hydroxy 2-{6-[(6-fluoro-quinolin-2-ylmethyl)-amino]-3-aza-bicyclo[3.1.0]hex-3-yl}pyrimidine-5-carboxamide]
Solid form by XRPD after static storage ([1]; 25° C./97% RH): Amorphous, with low-level peak at 3.7° 2θ
Solid form by XRPD after static storage ([1]; 40° C./75% RH): Amorphous, with low-level peak at 3.7° 2θ

Solid form by XRPD after static storage ([1]; 25° C./97% RH): converted to Mesylate Form 1
Solid form by XRPD after static storage ([1]; 40° C./75% RH): converted to Mesylate Form 1
Structure (SMILES): O=C(NO)c1cnc(N2CC3C(C2)C3NCc2ccc3cc(F)ccc3n2)nc1 (stereo not shown) [Mesylate Form 6, N-hydroxy 2-{6-[(6-fluoro-quinolin-2-ylmethyl)-amino]-3-aza-bicyclo[3.1.0]hex-3-yl}pyrimidine-5-carboxamide]

Solid form by XRPD after static storage ([1]; 25° C./97% RH): converted to Mesylate Form 1
Solid form by XRPD after static storage ([1]; 40° C./75% RH): converted to Mesylate Form 1
Structure (SMILES): O=C(NO)c1cnc(N2CC3C(C2)C3NCc2ccc3cc(F)ccc3n2)nc1 (stereo not shown) [Mesylate Form 8, N-hydroxy 2-{6-[(6-fluoro-quinolin-2-ylmethyl)-amino]-3-aza-bicyclo[3.1.0]hex-3-yl}pyrimidine-5-carboxamide]

Water uptake, first sorption cycle [4]: 0.7%
Starting water content in GVS [4]: 9.4%
Gradual water loss, desorption cycle 1 ([4]; down to 20% RH): 0.8%
Thermodynamic solubility in FaSSGF [5]: 24000 µg/mL
HPLC purity after static storage ([1]; 25° C./97% RH): 99.5%
HPLC purity after static storage ([1]; 40° C./75% RH): 99.4%
Structure (SMILES): O=C(NO)c1cnc(N2C[C@@H]3[C@H](C2)[C@H]3NCc2ccc3cc(F)ccc3n2)nc1 [Mesylate Form 4, N-hydroxy 2-{6-[(6-fluoro-quinolin-2-ylmethyl)-amino]-3-aza-bicyclo[3.1.0]hex-3-yl}pyrimidine-5-carboxamide]
XRPD post-GVS (solid form) [4]: conversion to Mesylate Form 1; also recorded: Post-GVS: Converted to Mesylate Form 1 by XRPD
Solid form by XRPD after static storage ([1]; 25° C./97% RH): conversion to Mesylate Form 1; also recorded: converted to Mesylate Form 1

Second part, the compound before the results:

Structure (SMILES): O=C(NO)c1cnc(N2C[C@@H]3[C@H](C2)[C@H]3NCc2ccc3cc(F)ccc3n2)nc1 [Free Base Form A, N-hydroxy 2-{6-[(6-fluoro-quinolin-2-ylmethyl)-amino]-3-aza-bicyclo[3.1.0]hex-3-yl}pyrimidine-5-carboxamide]
IDR in FaSSGF [2]: 1.1 mg/min/cm^2
solubility at 24 h ([3]; thermodynamic from solid, deionized water, 25° C., 24 hours, maximum final concentration 40 mg/ml of parent free-form): 1 µg/mL (≈ 2.54 µM)
pH of saturated solution [3]: (pH = 7.4)

Structure (SMILES): O=C(NO)c1cnc(N2C[C@@H]3[C@H](C2)[C@H]3NCc2ccc3cc(F)ccc3n2)nc1 [Free Base Form B, N-hydroxy 2-{6-[(6-fluoro-quinolin-2-ylmethyl)-amino]-3-aza-bicyclo[3.1.0]hex-3-yl}pyrimidine-5-carboxamide]
IDR in FaSSGF [2]: 1.8 mg/min/cm^2
Solubility in water ([3]; deionized water, 25° C., 24 hours, maximum final concentration 40 mg/ml of parent free-form): 1 µg/mL (≈ 2.54 µM)
pH of saturated solution [3]: (pH = 7.4)

Structure (SMILES): O=C(NO)c1cnc(N2C[C@@H]3[C@H](C2)[C@H]3NCc2ccc3cc(F)ccc3n2)nc1 [Mesylate Form 3, N-hydroxy 2-{6-[(6-fluoro-quinolin-2-ylmethyl)-amino]-3-aza-bicyclo[3.1.0]hex-3-yl}pyrimidine-5-carboxamide]
Water loss, desorption cycle 1 ([4]; 30-20% RH): Desorption Cycle 1 22% water loss from 30-20% RH
Water uptake, first sorption cycle [4]: 2%
Water content on desorption cycle 1 ([4]; at 30% RH): 24.3%
Starting water content in GVS [4]: 25.1%
XRPD post-GVS (solid form) [4]: XRPD Post-GVS: Poorly crystalline broad reflections may match
Solubility residue (solid form) [5]: new solubility residue patterns
HPLC purity after static storage ([1]; 25° C./97% RH): 96.6%
Solid form by XRPD after static storage ([1]; 25° C./97% RH): remained unchanged; also recorded: Mesylate Form 3
Solid form by XRPD after static storage ([1]; 25° C./97% RH, listed as Form 3): remained as Mesylate Form 3
HPLC purity after static storage ([1]; 40° C./75% RH): 97.0%
Solid form by XRPD after static storage ([1]; 40° C./75% RH): conversion to the sesquihydrate Mesylate Form 5
Solid form by XRPD after static storage ([1]; 40° C./75% RH, listed as Form 3): convert to Mesylate Form 5

Structure (SMILES): O=C(NO)c1cnc(N2C[C@@H]3[C@H](C2)[C@H]3NCc2ccc3cc(F)ccc3n2)nc1 [Compound 1, N-hydroxy-2-{6-[(6-fluoro-quinolin-2-ylmethyl)-amino]-3-aza-bicyclo[3.1.0]hex-3-yl}pyrimidine-5-carboxamide]
Solubility in water ([3]; deionized water, 25° C., 24 hours, maximum final concentration 40 mg/ml of parent free-form, listed as Free base): essentially insoluble in water

Structure (SMILES): O=C(NO)c1cnc(N2C[C@@H]3[C@H](C2)[C@H]3NCc2ccc3cc(F)ccc3n2)nc1 [Mesylate Form 2, N-hydroxy 2-{6-[(6-fluoro-quinolin-2-ylmethyl)-amino]-3-aza-bicyclo[3.1.0]hex-3-yl}pyrimidine-5-carboxamide]
Hygroscopicity by GVS [4]: slightly hygroscopic
Hygroscopicity by GVS ([4]; listed as Form 2): slightly hygroscopic
XRPD post-GVS (solid form) [4]: unchanged; also recorded: XRPD Post-GVS: Mesylate Form 2
Solid form by XRPD after static storage ([1]; 25° C./97% RH): unchanged; also recorded: Mesylate Form 2
Solid form by XRPD after static storage ([1]; 25° C./97% RH, listed as Form 2): stable after 1 week
Solid form by XRPD after static storage ([1]; 40° C./75% RH): unchanged; also recorded: Mesylate Form 2
Solid form by XRPD after static storage ([1]; 40° C./75% RH, listed as Form 2): stable after 1 week
